Measurements from US20240197694A1, “MODIFIED PROTEINS AND PROTEIN BINDERS” (Cullgen (Shanghai), Inc., priority 2021, published 2024).

Target: T1, DCAF1 (1058-1396) (Homo sapiens, UniProt Q9Y4B6)
T1 construct: a fragment of a DCAF1 protein that includes amino acid residues A1058 to E1396; His6 (N, cleaved yes); made in house; host or cells: Sf9 insect cells (Bac-to-Bac baculovirus, pFastBacHT vector)
Assay: Surface plasmon resonance (SPR) binding assay, compound binding to DCAF1
Conditions: immobilized DCAF1 (1058-1396), steady state affinity model, 25° C.
Description: Binding affinities of specific exemplary compounds to DCAF1 (1058-1396), which is a fragment of a DCAF1 protein that includes amino acid residues A1058 to E1396 were determined by a surface plasmon resonance (SPR) assay. Briefly, purified DCAF1 (1058-1396) proteins were immobilized at a density of 9,000-11,000 resonance units (RUs) on a CMS sensor chip. Sensorgrams were recorded at different concentrations of compounds in multi-cycle kinetic format. Data were analyzed using a steady state affinity model through Biacore Evaluation Software to provide equivalent dissociation constants (Kd).
Binding affinities of compounds to DCAF1 were determined by a surface plasmon resonance (SPR) assay. Purified DCAF1 (1058-1396) proteins were immobilized on a CMS sensor chip, and a dose range of compound solutions were injected in multi-cycle kinetic format. Data were analyzed using a steady state model to provide equivalent dissociation constants (Kd).
Protein Expression and Purification: Human DCAF1 (1058-1396) (UniPro: Q9Y4B6) coding sequences were cloned into pFastBacHT vector and were expressed in Sf9 cells using Bac-to-Bac baculovirus expression system (Thermo Fisher Scientific). The expression construct for DCAF1 (1058-1396) included a N-terminal His6-tag to facilitate the purification. DCAF1 (1058-1396) proteins were obtained from supernatants of cell lysates and purified through sequential application of Ni affinity chromatography (Ni-NTA column, Bio-Rad), Tag removal using TEV protease, and size-exclusion chromatography (Superdex 200 column, GE Healthcare).
Surface plasmon resonance (SPR) binding assays: SPR studies were performed on a Biacore X100 plus or T200 instrument (GE Healthcare). Immobilization of purified DCAF1 (1058-1396) was carried out at 25° C. using a CMS sensor chip. The surface was pre-equilibrated in HBS-EP running buffer (10 mM HEPES, pH 7.4, 150 mM NaCl, 3 mM EDTA, 0.05% P20), before being activated with EDC/NHS. DCAF1 (1058-1396) was immobilized through amino groups to a density of 9,000-12,000 resonance units (RUs) on flow cell channel 2 (FC2), whereas flow cell channel 1 (FC1) was used as reference. Both DCAF1 immobilized and reference surfaces were deactivated with 1 M ethanolamine.
Interaction experiments were performed at 25° C. The compounds were prepared and serially diluted in HBS-EP running buffer containing final 2% DMSO (6-point two-fold serial dilution, 100 μM -3.125 μM final concentration of compounds). Compound Solutions were injected individually in multi-cycle kinetic format without regeneration (flow rate 30 μL/min, association time 60 s, dissociation time 60 s). Sensorgrams from reference surfaces and blank injections were subtracted from the raw data (double-referenced) and the data was solvent-corrected prior to analysis. Data were analyzed using a steady state affinity model through Biacore Evaluation Software to provide equivalent dissociation constants (Kd).

T1 sequence (Q9Y4B6 1058-1396): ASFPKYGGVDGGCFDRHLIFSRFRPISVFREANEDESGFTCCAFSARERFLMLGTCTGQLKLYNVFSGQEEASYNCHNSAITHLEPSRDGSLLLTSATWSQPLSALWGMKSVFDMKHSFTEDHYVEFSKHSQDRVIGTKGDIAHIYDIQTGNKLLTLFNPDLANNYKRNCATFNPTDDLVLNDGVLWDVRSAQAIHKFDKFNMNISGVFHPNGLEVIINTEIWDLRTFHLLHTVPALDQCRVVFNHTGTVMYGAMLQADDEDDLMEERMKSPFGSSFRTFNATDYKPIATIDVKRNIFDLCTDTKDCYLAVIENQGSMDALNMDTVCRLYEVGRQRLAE

Structure (SMILES)	Kd [µM]
O=C(CCN1CCc2[nH]c3ccc(Cl)cc3c2C1)N1CCOCC1 [CPD-049, 3-(8-chloro-1,3,4,5-tetrahydro-2H-pyrido[4,3-b]indol-2-yl)-1-morpholinopropan-1-one]	≤ 40
Clc1ccc2[nH]c3c(c2c1)CN(CCc1cnn[nH]1)CC3 [CPD-008, 2-(2-(1H-1,2,3-triazol-5-yl)ethyl)-8-chloro-2,3,4,5-tetrahydro-1H-pyrido[4,3-b]indole]	40 to 70
NCCCCCCn1cccc1CNCc1ccncc1 [CPD-005, 6-(2-(((pyridin-4-ylmethyl)amino)methyl)-1H-pyrrol-1-yl)hexan-1-amine]	40 to 70
Cc1cccc2c1[C@@H]1CN(C)CC[C@H]1N2 (racemic) [CPD-039, trans-2,9-dimethyl-2,3,4,4a,5,9b-hexahydro-1H-pyrido [4,3-b]indole]	> 100
CCCCNCc1cccn1-c1ccccc1 [CPD-100, N-((1-phenyl-1H-pyrrol-2-yl)methyl)butan-1-amine]	70 to 100
CC(C)N1CCc2c(c3ccccc3n2CC(=O)O)C1 [CPD-010, 2-(2-isopropyl-1,2,3,4-tetrahydro-5H-pyrido[4,3-b]indol-5-yl)acetic acid]	> 100
Cc1ccc2c(c1)C1CN(C)CCC1N2C(=O)c1cc(F)ccc1Br (centres unmarked) [CPD-065, (2-bromo-5-fluorophenyl) (2,8-dimethyl-1,2,3,4,4a,9b-hexahydro-5H-pyrido[4,3-b]indol-5-yl)methanone]	≤ 40
Cc1ccc2c(c1)C1CN(C)CCC1N2C(=O)c1cc(-n2cccc2)ccn1 (centres unmarked) [CPD-068, (4-(1H-pyrrol-1-yl)pyridin-2-yl)(2,8-dimethyl-1,2,3,4,4a,9b-hexahydro-5H-pyrido[4,3-b]indol-5-yl)methanone]	> 100
Cc1ccc2c(c1)[C@@H]1CN(C)CC[C@H]1N2 (racemic) [CPD-032, trans-2,8-dimethyl-2,3,4,4a,5,9b-hexahydro-1H-pyrido [4,3-b]indole]	> 100
Cc1ccc(C(=O)N[C@H](C(=O)N2c3ccc(C)cc3C3CN(C)CCC32)C(C)C)cc1 (stereo partly drawn) [CPD-079, N-((2S)-1-(2,8-dimethyl-1,2,3,4,4a,9b-hexahydro-5H-pyrido [4,3-b]indol-5-yl)-3-methyl-1-oxobutan-2-yl)-4-methylbenzamide]	> 100
Cn1cccc1CNCc1ccncc1 [CPD-001, 1-(1-methyl-1H-pyrrol-2-yl)-N-(pyridin-4-ylmethyl)methanamine]	40 to 70
Cc1ccc2c(c1)C1CN(C)CCC1N2C(=O)/C=C/c1ccccc1 (centres unmarked) [CPD-083, (E)-1-(2,8-dimethyl-1,2,3,4,4a,9b-hexahydro-5H-pyrido [4,3-b]indol-5-yl)-3-phenylprop-2-en-1-one]	> 100
CN1Cc2cc(NCCOCCOCCOCCN)ccc2CC1CNc1ncccc1F (centres unmarked) [CPD-017, N-(2-(2-(2-(2-aminoethoxy)ethoxy)ethoxy)ethyl)-3-(((3-fluoropyridin-2-yl)amino)methyl)-2-methyl-1,2,3,4-tetrahydroisoquinolin-7-amine]	40 to 70
Cc1ccc2c(c1)C1CN(C)CCC1N2C(=O)/C=C/c1ccc2c(c1)OCO2 (centres unmarked) [CPD-086, (E)-3-(benzo[d][1,3]dioxol-5-yl)-1-(2,8-dimethyl-1,2,3,4,4a,9b-hexahydro-5H-pyrido[4,3-b]indol-5-yl) prop-2-en-1-one]	> 100
CN(CC1Cc2ccccc2CN1C)C(=O)Cn1cnc2ccccc21 (centres unmarked) [CPD-095, 2-(1H-benzo[d]imidazol-1-yl)-N-methyl-N-((2-methyl-1,2,3,4-tetrahydroisoquinolin-3-yl)methyl)acetamide]	40 to 70
O=C(O)CCN1CCc2[nH]c3ccc(Br)cc3c2C1 [CPD-054, 3-(8-bromo-1,3,4,5-tetrahydro-2H-pyrido[4,3-b]indol-2-yl)propanoic acid]	> 100
CN1Cc2ccccc2CC1CNc1ncccc1F (centres unmarked) [CPD-007, 3-fluoro-N-((2-methyl-1,2,3,4-tetrahydroisoquinolin-3-yl)methyl)pyridin-2-amine]	> 100
